The record followed here is US11773093B1, “N-(pyrimido[2,3-b]indol-7-yl)acetamide compounds as antibacterial agents” (KING FAISAL UNIVERSITY, priority 2023, dated 2023).

Values after ≈ are worked out from the molar mass of the structure shown. Where two headings read alike, the source gives them in different places. Some results are limits rather than exact numbers.

In general, MIC refers to the lowest concentration found to suppress growth. As a reminder, the IC50 is the concentration at which inhibition is half-maximal.

Experiment [1] concerns Enterococcus faecium ATCC 35667. Put plainly: In vitro antibacterial activity (MIC, CLSI M07-A10 dilution). The class given is cell-based. The following applies: ATCC35667.
Experiment [2] concerns Staphylococcus epidermidis. The experiment is described as above. The format is cell-based.
Experiment [3] has as its system Escherichia coli MTCC 443. Described as above. The format is cell-based. The following applies: MTCC443.
Experiment [4] has as its system Mycobacterium tuberculosis H37Rv strain. The experiment can be described thus: Anti-tubercular properties, alamar blue microplate MIC. The format is cell-based. The following applies: 168 h, M. tuberculosis H37Rv, seven days incubation at 37° C., read-out: anti-mycobacterial activity (MIC). (Alamar Blue is a resazurin reagent that responds to reducing activity.)
Experiment [5] concerns Klebsiella pneumonia MTCC 618. The experiment can be described thus: In vitro antibacterial activity (MIC, CLSI M07-A10 dilution). The format is cell-based. The note with it: Klebsiella pneumoniae, MTCC618.
Experiment [6] deals with Enterococcus faecium ATCC 51559 (VRE resistant). The experiment is described as above. The class given is cell-based.
For experiment [7], the target named is T1, DNA gyrase from E. coli (Escherichia coli, UniProt P0AES4+P0AES6).
T1 construct: purchased Inspiralis
The experiment can be described thus: Inhibitory activities on E. coli DNA Gyrase (Inspiralis assay). The class given is biochemical. How it is done:
Inhibitory potencies were investigated utilizing the Inspiralis assay on streptavidin-coated 96-well microtiter plates. First, the plates were rehydrated with buffer (20 mM Tris-HCl with pH 7.6, 0.01% w/v BSA, 0.05% v/v Tween 20, 137 mM NaCl) and the biotinylated oligonucleotide was then immobilized. After washing off the unbound oligonucleotide, the enzyme test was performed. The reaction volume of 30 μL in buffer (35 mM Tris×HCl with pH 7.5, 4 mM MgCl2, 24 mM KCl, 2 mM DTT, 1.8 mM spermidine, 1 mM ATP, 6.5% w/v glycerol, 0.1 mg/mL albumin) contained 1.5 U of DNA gyrase from E. coli, 0.75 μg of relaxed pNO1 plasmid, and 3 μL solution of the inhibitor in 10% DMSO and 0.008% Tween 20. Reaction solutions were incubated at 37° C. for 30 min. After that, the TF buffer (50 mM NaOAc with pH 5.0, 50 mM NaCl and 50 mM MgCl2) was added to terminate the enzymatic reaction. After additional incubation for 30 min at rt, during which biotinoligonucleotide-plasmid triplex was formed, the unbound plasmid was washed off using TF buffer and SybrGOLD in T10 buffer (10 mM Tris HCl with pH 8.0 and 1 mM EDTA) was added. The fluorescence was measured with a microplate reader (BioTek Synergy H4, excitation: 485 nm, emission: 535 nm). Initial screening was done at 100 or 10 μM concentration of inhibitors. […] GraphPad Prism software was used to calculate the IC50 values. […]

Experiment [8] has as its system Staphylococcus aureus ATCC 29213. Put plainly: In vitro antibacterial activity (MIC, CLSI M07-A10 dilution). The class given is cell-based. The note with it: ATCC29213.
In experiment [9] the test system is Bacillus subtilis MTCC 441. Described as above. The class given is cell-based. The note with it: MTCC441.
For experiment [10], the system named is Pseudomonas aeruginosa MTCC 741. Described as above. The format is cell-based. The note with it: MTCC741.
Experiment [11] has as its system Staphylococcus aureus ATCC BAA-1556 (MERSA resistant). The description is as above. The format is cell-based. The note with it: ATCCBAA1556.

T1 sequence (P0AES4 whole entry, one chain of several): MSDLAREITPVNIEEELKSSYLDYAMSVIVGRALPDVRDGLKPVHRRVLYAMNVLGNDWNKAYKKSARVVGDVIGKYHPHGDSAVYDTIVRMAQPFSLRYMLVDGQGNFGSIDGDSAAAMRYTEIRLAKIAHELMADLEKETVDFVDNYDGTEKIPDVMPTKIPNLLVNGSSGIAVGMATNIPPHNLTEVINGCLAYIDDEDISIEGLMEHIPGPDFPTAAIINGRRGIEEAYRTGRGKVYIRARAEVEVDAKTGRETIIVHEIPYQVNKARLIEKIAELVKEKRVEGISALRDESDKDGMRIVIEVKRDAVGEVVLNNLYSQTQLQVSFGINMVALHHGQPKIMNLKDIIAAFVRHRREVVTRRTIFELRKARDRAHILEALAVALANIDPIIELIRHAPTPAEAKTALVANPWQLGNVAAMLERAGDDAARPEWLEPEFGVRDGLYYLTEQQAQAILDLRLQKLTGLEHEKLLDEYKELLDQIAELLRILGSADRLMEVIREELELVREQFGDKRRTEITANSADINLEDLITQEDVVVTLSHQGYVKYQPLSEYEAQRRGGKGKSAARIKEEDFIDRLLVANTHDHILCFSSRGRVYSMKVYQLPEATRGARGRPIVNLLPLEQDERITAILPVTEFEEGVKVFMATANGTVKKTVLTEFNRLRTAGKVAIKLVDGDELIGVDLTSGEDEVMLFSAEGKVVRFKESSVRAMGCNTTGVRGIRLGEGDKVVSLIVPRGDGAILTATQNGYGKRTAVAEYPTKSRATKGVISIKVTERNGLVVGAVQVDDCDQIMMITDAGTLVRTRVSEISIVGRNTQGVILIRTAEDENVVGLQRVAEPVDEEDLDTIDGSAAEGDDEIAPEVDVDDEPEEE

With `CC(=O)Nc1ccc2c(c1)[nH]c1nccc(Nc3ccc(C(=O)O)cc3)c12` [Example 8, 4-((7-acetamido-9H-pyrido[2,3-b]indol-4-yl)amino)benzoic acid], the MIC in [1] (Enterococcus faecium ATCC 35667, read-out: MIC) is 0.5 µg/mL (≈ 1.39 µM); in experiment [2], 0.25 µg/mL (≈ 0.694 µM); in experiment [3], 1 µg/mL (≈ 2.77 µM); in [4], 8 µg/mL (≈ 22.2 µM); in experiment [5] (Klebsiella pneumonia MTCC 618, read-out: MIC), 1 µg/mL (≈ 2.77 µM); in experiment [6] (Enterococcus faecium ATCC 51559 (VRE resistant), read-out: MIC) it was 1 µg/mL (≈ 2.77 µM). Besides, the MIC in experiment [8] was 0.25 µg/mL (≈ 0.694 µM); in experiment [9] (Bacillus subtilis MTCC 441, read-out: MIC), 0.25 µg/mL (≈ 0.694 µM); in experiment [10] (Pseudomonas aeruginosa MTCC 741, read-out: MIC), 0.25 µg/mL (≈ 0.694 µM); in experiment [11], 4 µg/mL (≈ 11.1 µM). The IC50 in experiment [7] amounted to 125 nM.

For the compound `CN[C@H](CC(C)C)C(=O)N[C@H]1C(=O)N[C@@H](CC(N)=O)C(=O)N[C@H]2C(=O)N[C@H]3C(=O)N[C@H](C(=O)N[C@H](C(=O)O)c4cc(O)cc(O)c4-c4cc3ccc4O)[C@H](O)c3ccc(c(Cl)c3)Oc3cc2cc(c3O[C@@H]2O[C@H](CO)[C@@H](O)[C@H](O)[C@H]2O[C@H]2C[C@](C)(N)[C@H](O)[C@H](C)O2)Oc2ccc(cc2Cl)[C@H]1O` [Vancomycin, reference compound], the MIC in experiment [1] (Enterococcus faecium) was 0.5 µg/mL (≈ 0.345 µM); in experiment [5], above 128 µg/mL; in experiment [6] (Enterococcus faecium), above 128 µg/mL; in experiment [9] (Bacillus subtilis), 0.5 µg/mL (≈ 0.345 µM); in [10] (Pseudomonas aeruginosa), above 128 µg/mL.
